{"source": "patent US20080008716A1", "about": "“Combined Pharmaceutical Composition Comprising an Anti-4-1BB Monoclonal Antibody and Chemotherapeutic Anti-Cancer Agent for Preventing and Treating Cancer Disease” (ULSAN INDUSTRIAL EDUCATION FOUNDATION, priority 2006, published 2008)", "key": {"[1]": {"test_system": "B16F10 melanoma cell", "assay": "Anticancer effect of anti-4-1BB antibody combined with other chemotherapeutic anti-cancer agents; tumor size and survival", "details": "for growth rate of cancer tissue / survival rate of mice / anticancer effect / activity: given simultaneously with B16F10, FIG. 3; for growth rate of cancer tissue: chemotherapeutic once (Cis 50 or 200 μg, 5-FU 800 or 10,000 μg, irinotecan 2 mg, paclitaxel 200 or 500 μg i.p.; Doxo 200 or 400 μg i.v.), antibody 100 μg, vs rat IgG control; for survival rate of mice / anticancer effect / activity: same doses as E16", "description": "4×10^5 cells of B16F10 melanoma cell were injected to the back of C57BL/6 mice to occur tumor in a similar method in\nAt the same time, 100 μg of anti-4-1BB monoclonal antibody and/or 50 or 200 μg of cisplatin, 800 or 10,000 μg of 5-fluorouracil (5-FU), 2 mg of irinotecan and 200 or 500 μg of paclitaxel (Taxel) were intraperitoneally injected into the mice once respectively and the anti-4-1BB monoclonal antibody was further injected into the peritoneal cavity at 6 times per every 5 days. 100 μg of anti-4-1BB monoclonal antibody and/or 200 or 400 μg of Doxorubicin (Doxo) were injected into the vein and an anti-4-1BB monoclonal antibody was injected into the peritoneal cavity at 6 times per every 5 days. The size of tumor and the survival rates of the mice were analyzed during the test period (See FIG. 3)."}, "[2]": {"test_system": "draining lymph node cell (CD4 and CD8 T cells)", "assay": "Lymphocyte repopulation: cell number, CD4 and CD8 T cells in draining lymph node of tumor-bearing mice", "assay_type": "in vivo, C57BL/6 mice", "procedure": "The ratio of immune cell in each sample was analyzed with FACScan (BD Bioscience, USA), and the number of infiltrated CD4+ CD8+ T cells in tumor tissue was calculated by following Math FIG. 1\nAccordingly, it was anticipated that the sustainable treatment effect of cancer by the combined treatment with CTX and anti-4-1BB antibody would be involved in the repopulation of T cell showing anticancer activity."}, "[3]": {"test_system": "B16F10 melanoma cell", "description": "(§1) C57BL/6 male mice (Harlan Laboratories, Indianapolis, Ind.) were used as an experiment animal. The mice had been bred allowing freely accessible to water and feed and maintaining the temperature to 21±2° C. in 12 hours of light/dark cycle before use in test. B16F10(ATCC CRL-6475, USA), a melanoma cell line of mouse, was cultured in DMEM medium (Dulbeco's modified eagle's medium, GIBCO BRL, USA) containing 10% FBS (Fetal Bovine Serum; Gibco BRL, NY), 2 mM L-glutamine, 100 U/l penicillin (Invitrogen, USA) and 100 μg/ml streptomycin (Invitrogen, USA).\n(§2) 4×10^5 cells of B16F10 melanoma cell were subcutaneously injected to the back of mice to occur tumor. At the same time, 100 μg of anti-4-1BB monoclonal antibody and 3 mg of CTX were intraperitoneally injected into the mice and the antibody was further injected thereto at the interval of five days. […] The size and survival rate of the mice were periodically determined.\nAt the same time, 100 μg of anti-4-1BB monoclonal antibody and 3 mg of CTX were intraperitoneally injected to the mice once and anti-4-1BB monoclonal antibody was injected into the peritoneal cavity at 6 times per every 5 days. The tumor size and the survival rates of mice were analyzed during the test period (See FIG. 1)"}, "[4]": {"test_system": "B16F10 melanoma cell", "remark": "listed apart in the source", "description": "as §1, §2\n3 mg of CTX were injected into the peritoneal cavity of the mice at 5th days and 10th days after injecting cancer cells, anti 4-1BB antibody was injected into the peritoneal cavity at 6 times per every 5 days from 5th days or 10th days after injecting cancer cells."}, "[5]": {"test_system": "IFN-γ", "assay": "IFN-γ expression of CD4 and CD8 T cells of draining lymph node (intracellular staining, FACScan)", "details": "17th day after treating, FIG. 5a", "description": "At 1st, 2nd, 4th, 8th, 12th, 16th, 20th, 24th days after the injection, the closest draining lymph node (inguinal lymph node) to tumor tissue in each group was isolated from the mice to determine the expression of IFN-γ (Kim Y H et al., Cell. Immunol., 238(2), pp 76˜86, 2005). To stain the IFN-γ cytokine in cell, lymph-node cell suspension was prepared from each group and the separated cells were cultured in culture medium containing Brefeldin A (BD Bioscience, USA) for 6 hours after treating with 50 ng/ml of PMA and 500 mg/ml of Ionomycin (Sigma, USA). […] The cells was then stained with anti-IFN-γ-PE (eBioscience, USA) using by Cytofix/cytoperm (BD Pharmingen, USA) with the manual of manufacturing company and analyzed with FACScan (BD Bioscience, USA).\n3 mg of CTX and/or 100 μg of anti-4-1BB antibody were treated to the tumor-injected mice once and the cell was separated from the experimental group at 17th day when the cell started to launch the repopulation after treating with CTX and at 22nd day when the repopulation of the cell in lymph node was enough and the expression of IFN-γ was analyzed with FACScan (BD Bioscience, USA) with the method disclosed in Example 3."}}, "data": [{"smiles": "O=c1[nH]cc(F)c(=O)[nH]1", "note": "[5-FU, 5-fluorouracil]", "values": [{"measurement": "growth rate of cancer tissue", "setting": "[1]", "value": "decreased in a dose dependent manner"}, {"measurement": "survival rate of mice", "setting": "[1]", "value": "increased"}]}, {"smiles": "O=P1(N(CCCl)CCCl)NCCCO1", "note": "(stereo not drawn) [CTX, cyclophosphamide]", "values": [{"measurement": "number of cell in lymph node", "setting": "[2]; B16F10-bearing mice, FIG. 4a", "value": "temporarily been decreased"}, {"measurement": "time after injecting cancer cell at which number of cell in lymph node increased", "setting": "[2]; B16F10-bearing mice, FIG. 4a", "value": "around 16 days"}, {"measurement": "level of lymph node cell number comparing with mice treated with rat IgG or anti-4-1BB", "setting": "[2]; after recovery of the cell number", "value": "less than ½ to ⅕"}, {"measurement": "day after which number of CD4 and CD8 T cell was recovered to normal range", "setting": "[2]; draining lymph node", "value": "> 14", "unit": "days"}, {"measurement": "number of CD4 and CD8 T cell", "setting": "[2]; draining lymph node, FIG. 4b, 4c", "value": "decreased"}, {"measurement": "growing rate of tumor / growth of cancer", "setting": "[3]; treatment at the same time as 4×10^5 B16F10 cells, 100 μg antibody i.p. 6 times per every 5 days, 3 mg CTX i.p. once, FIG. 1", "value": "potent inhibiting effect on the growth of cancer"}, {"measurement": "day after injecting cancer cells until which tumor size was not increased", "setting": "[3]; treatment at the same time as B16F10 injection", "value": 30, "unit": "days"}, {"measurement": "survival of mice extended for", "setting": "[3]; treatment at the same time as B16F10 injection, versus mice injected with only B16F10 (all died around 30th day)", "value": 20, "unit": "days"}, {"measurement": "anti-cancer activity", "setting": "[4]; treatment at 5th day after injecting cancer cell", "value": "did not show any effect on the anti-cancer activity"}, {"measurement": "growth of tumor", "setting": "[4]; treatment from 10th day after injecting cancer cells, FIG. 2c", "value": "did not show any change"}, {"measurement": "survival of mice", "setting": "[4]; treatment from 10th day after injecting cancer cells, FIG. 2d", "value": "did not show any change"}, {"measurement": "IFN-γ expression of T cell", "setting": "[5]", "value": "2 to 3", "unit": "%"}]}, {"smiles": "COc1cccc2c1C(=O)c1c(O)c3c(c(O)c1C2=O)C[C@@](O)(C(=O)CO)C[C@@H]3O[C@H]1C[C@H](N)[C@H](O)[C@H](C)O1", "note": "[Doxorubicin]", "values": [{"measurement": "growth rate of cancer tissue", "setting": "[1]", "value": "had been decreased"}, {"measurement": "anticancer effect / activity", "setting": "[1]", "value": "strong anticancer effect in a dose dependent manner"}, {"measurement": "survival rate of mice", "setting": "[1]", "value": "remarkably increased"}]}, {"smiles": "CCc1c2c(nc3ccc(OC(=O)N4CCC(N5CCCCC5)CC4)cc13)-c1cc3c(c(=O)n1C2)COC(=O)[C@]3(O)CC", "note": "[Irinotecan, irinotecan]", "values": [{"measurement": "time within which most of mice died", "setting": "[1]; 2 mg irinotecan i.p. once", "value": "≤ 30", "unit": "days"}, {"measurement": "anticancer effect / activity", "setting": "[1]", "value": "strong anticancer effect in a dose dependent manner"}]}, {"smiles": "CC(=O)O[C@H]1C(=O)[C@@]2(C)[C@H]([C@H](OC(=O)c3ccccc3)[C@]3(O)C[C@H](OC(=O)[C@H](O)[C@@H](NC(=O)c4ccccc4)c4ccccc4)C(C)=C1C3(C)C)[C@]1(OC(C)=O)CO[C@@H]1C[C@@H]2O", "note": "[Paclitaxel, paclitaxel]", "values": [{"measurement": "growth rate of cancer tissue", "setting": "[1]", "value": "slightly slowed"}, {"measurement": "anticancer effect / activity", "setting": "[1]", "value": "a little lower inhibiting effect of the growth of B16-F10 melanoma comparing with other anticancer agents"}, {"measurement": "survival rate of mice", "setting": "[1]", "value": "slightly increased"}]}, {"smiles": "N.N.[Cl][Pt][Cl]", "note": "[cisplatin]", "values": [{"measurement": "growth rate of cancer tissue", "setting": "[1]", "value": "decreased in a dose dependent manner"}, {"measurement": "survival rate of mice", "setting": "[1]", "value": "partly increased"}]}]}
